Where a SMILES comes first, the peptide text is derived from it.
Tests used:
Assay type in all cases: cell-based
[1] = tested on: Pseudomonas aureofaciens CCEB 518; assay: Inhibition zone assay; design: key: --: "-" means that no inhibition has been found; conditions: I and B 10 ul, L 5 ug
[2] = tested on: Xanthomonas maltophilia JCM1977; assay: Inhibition zone assay; design: key: --: "-" means that no inhibition has been found; conditions: Xanthomonas maltophilia JCM1977 (Tables 2 and 3)
[3] = tested on: Corynebacterium insidiosum NCPPB 1109; assay: Inhibition zone assay; conditions: I and B 10 ul, L 5 ug
Protocol: Whole lymph or purified components, resuspended in PBS to a final volume equal to the starting material (heated lymph), was applied in 3 mm wells on agar plates seeded with the test organisms. Antibacterial activity was determined by measuring the growth-inhibition zones (in mm).

[4] = tested on: Alcalienes denitrificans ATCC 15173; assay: Inhibition zone assay; design: key: --: "-" means that no inhibition has been found
Klebsiella oxytoca KO2 = assay: Inhibition zone assay; design: key: --: "-" means that no inhibition has been found
[5] = tested on: Streptococcus B CDC 55 460; assay: Inhibition zone assay; design: key: --: "-" means that no inhibition has been found; conditions: I 10 ul
[6] = tested on: Yersinia enterocolitica PGS C-1106; assay: Inhibition zone assay; design: key: --: "-" means that no inhibition has been found; conditions: * synthetic ApidIa and heattreated immune lymph instead of Bee6 and native immune lymph
[7] = tested on: Haemophilus influenzae NCTC 7279; assay: Inhibition zone assay; design: key: --: "-" means that no inhibition has been found; conditions: I and B 10 ul
[8] = tested on: Salmonella typhimurium ATCC 23565; assay: Inhibition zone assay; design: key: --: "-" means that no inhibition has been found
[9] = tested on: Salmonella infantis 81/257; assay: Inhibition zone assay; design: key: --: "-" means that no inhibition has been found; conditions: I and B 10 ul
[10] = tested on: Enterobacter cloacae LMG 2783; assay: Inhibition zone assay; design: key: --: "-" means that no inhibition has been found; conditions: I and B 10 ul
[11] = tested on: Erwinia carotovora var. atroseptica NCPPB 549; assay: Inhibition zone assay; design: key: --: "-" means that no inhibition has been found; conditions: I and B 10 ul, L 5 ug
[12] = tested on: Clostridium perfringens NCTC 6785; design: key: --: "-" means that no inhibition has been found; conditions: I 10 ul
[13] = tested on: Pseudomonas syringae pv. tomato NCPPB 1106; assay: Inhibition zone assay; design: key: --: "-" means that no inhibition has been found; conditions: * synthetic ApidIa and heattreated immune lymph instead of Bee6 and native immune lymph
[14] = tested on: Escherichia coli NCTC 11601; assay: Inhibition zone assay; design: key: --: "-" means that no inhibition has been found; conditions: I 10 ul
[15] = tested on: Arthrobacter sp. NRRL B-3724; assay: Inhibition zone assay

## CC[C@H](C)[C@H](NC(=O)[C@H](CCCCN)NC(=O)[C@@H]1CCCN1C(=O)[C@H](CC(N)=O)NC(=O)[C@H](Cc1ccccc1)NC(=O)[C@@H]1CCCN1C(=O)CNC(=O)[C@H](CCC(N)=O)NC(=O)CNC(=O)[C@@H]1CCCN1C(=O)[C@H](Cc1ccccc1)NC(=O)[C@@H](NC(=O)[C@@H]1CCCN1C(=O)[C@H](Cc1ccccc1)NC(=O)[C@@H]1CCCN1C(=O)[C@H](CCCNC(=N)N)NC(=O)[C@H](CCCNC(=N)N)NC(=O)CNC(=O)[C@@H]1CCCN1C(=O)[C@H](CCC(N)=O)NC(=O)[C@@H]1CCCN1C(=O)[C@@H](NC(=O)[C@H](CC(N)=O)NC(=O)[C@@H]1CCCN1C(=O)[C@H](CC(C)C)NC(=O)[C@@H]1CCCN1C(=O)[C@@H](NC(=O)[C@@H](N)Cc1ccc(O)cc1)C(C)C)C(C)C)[C@@H](C)O)C(=O)N[C@@H](CCCCN)C(=O)N[C@@H](Cc1c[nH]c2ccccc12)C(=O)N1CCC[C@H]1C(=O)N[C@@H](CCC(N)=O)C(=O)NCC(=O)N[C@@H](Cc1ccc(O)cc1)C(=O)O [bee 9] (H-YVPLPNVPQPGRRPFPTFPGQGPFNPKIKWPQGY-OH)
[1]
  diameter of growth-inhibition zone: --
[2]
  diameter of growth-inhibition zone: --
[3]
  diameter of growth-inhibition zone: 7 mm
[4]
  diameter of growth-inhibition zone: --
Klebsiella oxytoca KO2
  diameter of growth-inhibition zone: --
[5]
  diameter of growth-inhibition zone: --
[6]
  diameter of growth-inhibition zone: --
[7]
  diameter of growth-inhibition zone: --
[8]
  diameter of growth-inhibition zone: --
[9]
  diameter of growth-inhibition zone: --
[10]
  diameter of growth-inhibition zone: --
[11]
  diameter of growth-inhibition zone: --
[12]
  diameter of growth-inhibition zone: --
[13]
  diameter of growth-inhibition zone: --
[14]
  diameter of growth-inhibition zone: --
[15]
  diameter of growth-inhibition zone: 8 mm

From patent US5300629A, “Bactericidal and/or bacteriostatic peptides isolated from hemolymph of honeybees” (Plant Genetic Systems, N.V., priority 1987, dated 1994)
